Measurements: patent publication US8889671B2, “Compounds and methods for treating bacterial infections” (AstraZeneca AB, priority 2013, dated 2014)
Converted amounts (≈) assume the structure as drawn. Like-named read-outs stand apart in the source and are kept apart here.

How the values were obtained:
Staphylococcus aureus = assay: Susceptibility testing (MIC) Assay 1, broth microdilution; type: cell-based; details: Staphylococcus aureus
Streptococcus pneumoniae = assay: as above; type: cell-based
Streptococcus pyogenes = assay: as above; type: cell-based; details: Streptococcus pyogenes, Streptococcus pyrgenes, in vivo strain; read-out: Spy MIC
Escherichia coli = assay: Susceptibility testing (MIC) Assay 2, broth microdilution; type: cell-based; details: K12, read-out: Eco MIC
Haemophilus influenzae = assay: as above; type: cell-based; details: ATCC51907, Haemophilus influenzae, ATCC 51907, in vivo strain, read-out: Hin MIC
Klebsiella pneumoniae = assay: as above; type: cell-based; details: clinical isolate, mucoid, read-out: Kpn MIC
Pseudomonas aeruginosa = assay: as above; type: cell-based; details: PAO1, read-out: Pae MIC
[1] = biological target: Escherichia coli DNA gyrase A/B tetramer (Escherichia coli (strain K12), UniProt P0AES4+P0AES6); assay: DNA gyrase supercoiling activity fluorescence polarisation assay; type: biochemical; details: Eco Gyr FP Mean IC50, E. coli DNA gyrase supercoiling, 0.3 mM ATP
In short: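 Relaxed triplex-forming plasmid (130 micrograms/mL) supercoiled by 5 nM gyrase A/B tetramer in Tris-HCl pH 7.5 buffer with 4 mM MgCl2 and 0.3 mM ATP, ~30 min, ambient temperature. Quenched with 5′-BODIPY-FL triplex probe at pH 3.5; fluorescence anisotropy read after 60 min. IC50 by nonlinear regression against two control reactions.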

[2] = Staphylococcus aureus in vivo strain, MSQS, read-out: Sau(d) MIC
[3] = in vivo strain, MRQR, read-out: Sau(e) MIC
[4] = in vivo strain (footnote b), read-out: Spn(b) MIC
[5] = in vivo strain (footnote c), read-out: Spn(c) MIC

C[C@@H]1CN2c3c(cc4c(N5C[C@H](CO)OC5=O)noc4c3F)CC3(C(=O)NC(=O)NC3=O)[C@H]2[C@H](C)O1 [Example 37, (2R,4S,4aS)-11-Fluoro-8-[(5R)-5-(hydroxymethyl)-2-oxo-1,3-oxazolidin-3-yl]-2,4-dimethyl-1,2,4,4a-tetrahydro-2′H,6H-spiro[1,4-oxazino[4,3-a][1,2]oxazolo[4,5-g]quinoline-5,5′-pyrimidine]-2′,4′,6′(1′H,3′H)-trione]
MIC (Staphylococcus aureus; [2]): 3.1 µM (≈ 1.56 µg/mL) | MIC (Staphylococcus aureus; [3]): 25 µM (≈ 12.6 µg/mL) | MIC (Staphylococcus aureus; serum, read-out: Sau(f) MIC): 6.2 µM (≈ 3.12 µg/mL) | MIC (Streptococcus pneumoniae; [4]): 0.39 µM (≈ 0.196 µg/mL) | MIC (Streptococcus pneumoniae; [5]): 0.78 µM (≈ 0.393 µg/mL) | MIC (Streptococcus pyogenes): 0.39 µM (≈ 0.196 µg/mL) | MIC (Escherichia coli): 200 µM (≈ 101 µg/mL) | MIC (Haemophilus influenzae): 0.39 µM (≈ 0.196 µg/mL) | MIC (Klebsiella pneumoniae): > 200 µM | MIC (Pseudomonas aeruginosa): > 200 µM | IC50 [1]: 120 nM

C[C@@H]1CN2c3c(cc4c(N5C[C@H](CF)OC5=O)noc4c3F)CC3(C(=O)NC(=O)NC3=O)[C@H]2[C@H](C)O1 [Example 38, (2R,4S,4aS)-11-Fluoro-8-[(5R)-5-(fluoromethyl)-2-oxo-1,3-oxazolidin-3-yl]-2,4-dimethyl-1,2,4,4a-tetrahydro-2′H,6H-spiro[1,4-oxazino[4,3-a][1,2]oxazolo[4,5-g]quinoline-5,5′-pyrimidine]-2′,4′,6′(1′H,3′H)-trione]
MIC (Staphylococcus aureus; [2]): < 0.2 µM | MIC (Staphylococcus aureus; [3]): 1.65 µM (≈ 0.834 µg/mL) | MIC (Staphylococcus aureus; serum, read-out: Sau(f) MIC): 0.78 µM (≈ 0.394 µg/mL) | MIC (Streptococcus pneumoniae; [4]): 0.39 µM (≈ 0.197 µg/mL) | MIC (Streptococcus pneumoniae; [5]): 0.39 µM (≈ 0.197 µg/mL) | MIC (Streptococcus pyogenes): < 0.2 µM | MIC (Escherichia coli): 25 µM (≈ 12.6 µg/mL) | MIC (Haemophilus influenzae): 0.39 µM (≈ 0.197 µg/mL) | MIC (Klebsiella pneumoniae): 200 µM (≈ 101 µg/mL) | MIC (Pseudomonas aeruginosa): > 200 µM | IC50 [1]: 67 nM

C=C[C@H]1COC(=O)N1c1noc2c(F)c3c(cc12)CC1(C(=O)NC(=O)NC1=O)[C@H]1[C@H](C)O[C@H](C)CN31 [Example 39, (2R,4S,4aS)-11-Fluoro-2,4-dimethyl-8-((S)-2-oxo-4-vinyloxazolidin-3-yl)-2,4,4a,6-tetrahydro-1H,1′H-spiro[isoxazolo[4,5-g][1,4]oxazino[4,3-a]quinoline-5,5′-pyrimidine]-2′,4′,6′(3′H)-trione]
MIC (Staphylococcus aureus; [2]): 0.39 µM (≈ 0.195 µg/mL) | MIC (Staphylococcus aureus; [3]): 1.6 µM (≈ 0.799 µg/mL) | MIC (Staphylococcus aureus; serum, read-out: Sau(f) MIC): 1.6 µM (≈ 0.799 µg/mL) | MIC (Streptococcus pneumoniae; [4]): 0.78 µM (≈ 0.39 µg/mL) | MIC (Streptococcus pneumoniae; [5]): 0.78 µM (≈ 0.39 µg/mL) | MIC (Streptococcus pyogenes): 0.39 µM (≈ 0.195 µg/mL) | MIC (Escherichia coli): 25 µM (≈ 12.5 µg/mL) | MIC (Haemophilus influenzae): 0.39 µM (≈ 0.195 µg/mL) | MIC (Klebsiella pneumoniae): 200 µM (≈ 99.9 µg/mL) | MIC (Pseudomonas aeruginosa): > 200 µM | IC50 [1]: 97 nM

C[C@@H]1CN2c3c(cc4c(N5C[C@H](C=NO)OC5=O)noc4c3F)CC3(C(=O)NC(=O)NC3=O)[C@H]2[C@H](C)O1 [Example 40, (2R,4S,4aS)-11-Fluoro-8-{(5R)-5-[(hydroxyimino)methyl]-2-oxo-1,3-oxazolidin-3-yl}-2,4-dimethyl-1,2,4,4a-tetrahydro-2′H,6H-spiro[1,4-oxazino[4,3a][1,2]oxazolo[4,5-g]quinoline-5,5′-pyrimidine]-2′,4′,6′(1′H,3′H)-trione]
MIC (Staphylococcus aureus; [2]): 0.78 µM (≈ 0.403 µg/mL) | MIC (Staphylococcus aureus; [3]): 3.1 µM (≈ 1.6 µg/mL) | MIC (Staphylococcus aureus; serum, read-out: Sau(f) MIC): 1.6 µM (≈ 0.826 µg/mL) | MIC (Streptococcus pneumoniae; [4]): 0.39 µM (≈ 0.201 µg/mL) | MIC (Streptococcus pneumoniae; [5]): 0.78 µM (≈ 0.403 µg/mL) | MIC (Streptococcus pyogenes): 0.28 µM (≈ 0.145 µg/mL) | MIC (Escherichia coli): 12 µM (≈ 6.2 µg/mL) | MIC (Haemophilus influenzae): 0.39 µM (≈ 0.201 µg/mL) | MIC (Klebsiella pneumoniae): > 200 µM | MIC (Pseudomonas aeruginosa): > 200 µM | IC50 [1]: 380 nM

C[C@@H]1CN2c3c(cc4c(N5C(=O)OC[C@@H]5C#N)noc4c3F)CC3(C(=O)NC(=O)NC3=O)[C@H]2[C@H](C)O1 [Example 41, (4S)-3-[(2R,4S,4aS)-11-Fluoro-2,4-dimethyl-2′,4′,6′-trioxo-1,1′,2,3′,4,4′,4a,6′-octahydro-2′H,6H-spiro[1,4-oxazino[4,3-a][1,2]oxazolo[4,5-g]quinoline-5,5′-pyrimidin]-8-yl]-2-oxo-1,3-oxazolidine-4-carbonitrile]
MIC (Staphylococcus aureus; [2]): 0.78 µM (≈ 0.389 µg/mL) | MIC (Staphylococcus aureus; [3]): 1.6 µM (≈ 0.797 µg/mL) | MIC (Staphylococcus aureus; serum, read-out: Sau(f) MIC): 1.6 µM (≈ 0.797 µg/mL) | MIC (Streptococcus pneumoniae; [4]): 0.39 µM (≈ 0.194 µg/mL) | MIC (Streptococcus pneumoniae; [5]): 0.78 µM (≈ 0.389 µg/mL) | MIC (Streptococcus pyogenes): 0.78 µM (≈ 0.389 µg/mL) | MIC (Escherichia coli): 25 µM (≈ 12.5 µg/mL) | MIC (Haemophilus influenzae): 0.78 µM (≈ 0.389 µg/mL) | MIC (Klebsiella pneumoniae): > 200 µM | MIC (Pseudomonas aeruginosa): > 200 µM | IC50 [1]: 460 nM

CON=C[C@H]1COC(=O)N1c1noc2c(F)c3c(cc12)CC1(C(=O)NC(=O)NC1=O)[C@H]1[C@H](C)O[C@H](C)CN31 [Example 42, (2R,4S,4aS)-11-Fluoro-8-{(4S)-4-[(methoxyimino)methyl]-2-oxo-1,3-oxazolidin-3-yl}-2,4-dimethyl-1,2,4,4a-tetrahydro-2′H,6H-spiro[1,4-oxazino[4,3-a][1,2]oxazolo[4,5-g]quinoline-5,5′-pyrimidine]-2′,4′,6′(1′H,3′H)-trione]
MIC (Staphylococcus aureus; [2]): < 0.2 µM | MIC (Staphylococcus aureus; [3]): 0.39 µM (≈ 0.207 µg/mL) | MIC (Staphylococcus aureus; serum, read-out: Sau(f) MIC): 1.6 µM (≈ 0.849 µg/mL) | MIC (Streptococcus pneumoniae; [4]): 0.39 µM (≈ 0.207 µg/mL) | MIC (Streptococcus pneumoniae; [5]): 0.39 µM (≈ 0.207 µg/mL) | MIC (Streptococcus pyogenes): 0.39 µM (≈ 0.207 µg/mL) | MIC (Escherichia coli): 25 µM (≈ 13.3 µg/mL) | MIC (Haemophilus influenzae): 0.39 µM (≈ 0.207 µg/mL) | MIC (Klebsiella pneumoniae): 200 µM (≈ 106 µg/mL) | MIC (Pseudomonas aeruginosa): > 200 µM | IC50 [1]: 290 nM

CON=C[C@H]1CN(c2noc3c(F)c4c(cc23)CC2(C(=O)NC(=O)NC2=O)[C@H]2[C@H](C)O[C@H](C)CN42)C(=O)O1 [Example 43]
MIC (Staphylococcus aureus; [2]): 0.39 µM (≈ 0.207 µg/mL) | MIC (Staphylococcus aureus; [3]): 0.78 µM (≈ 0.414 µg/mL) | MIC (Staphylococcus aureus; serum, read-out: Sau(f) MIC): 1.6 µM (≈ 0.849 µg/mL) | MIC (Streptococcus pneumoniae; [4]): 0.78 µM (≈ 0.414 µg/mL) | MIC (Streptococcus pneumoniae; [5]): 1.6 µM (≈ 0.849 µg/mL) | MIC (Streptococcus pyogenes): 0.78 µM (≈ 0.414 µg/mL) | MIC (Escherichia coli): 50 µM (≈ 26.5 µg/mL) | MIC (Haemophilus influenzae): 1.6 µM (≈ 0.849 µg/mL) | MIC (Klebsiella pneumoniae): > 100 µM | MIC (Pseudomonas aeruginosa): > 100 µM | IC50 [1]: 440 nM
